The source of these data is patent US20220054644A1, “NOVEL DRUG DELIVERY CONJUGATED MOIETY FOR ORAL ADMINISTRATION OF DRUG UNSUITABLE FOR ORAL ADMINISTRATION AND PREPARATION METHOD THEREOF” (ST PHARM CO., LTD, priority 2015, published 2022).

The subject of one data set is FXa (Bovine Factor Xa). The data set can be described thus: Measurement of FXa: heparin activity with COATEST HEPARIN FXa assay kit. The conditions noted are these: chromogenic substrate S-2222, absorbance at 405 nm. Type of data set: biochemical. As for the experimental part:
The term “heparin activity” refers to the anticoagulant ability of heparin.
Stock solutions were prepared from 10 IU/ml of standard solution by accurately preparing test substances and then diluted to 0.1 IU/ml with buffer working solution (Tris 0.5 mol/L, pH=8.4, 10 ml, Chromogenix) to prepare standard solutions for each dose as shown in the following table 2 and used for the analysis.
Each 200 μL of pretreated samples was placed in a cuvette and preheated at 37° C. for 3 to 4 minutes. Each 100 μl of FXa (Bovine Factor Xa 71 nkat., Chromogenix) was added thereto and left at 37° C. for about 30 seconds. Then, each 200 μl of S-2222 (Chromogenic substrate (Bz-Ile-Glu-(g-OR)-Gly-Arg-pNA.HCl), Chromogenix) was added thereto and left at 37° C. for 3 minutes. Subsequently, each 300 μl of 20% acetic acid was added thereto, and then the absorbance was measured at 405 nm. At this time, the measurement should be performed within 4 hours.
A linear regression equation was obtained using calibration curve of the standard solutions and converted to obtain the titers of the samples.

For data set [1], the system named is deep vein thrombosis (DVT) disease models. The data set can be described thus: Measurement of DVT activities (rat deep vein thrombosis model). The conditions noted are these: rats, LMWH (enoxaparin) injected subcutaneously. Type of data set: in vivo. As for the experimental part: Low molecular weight heparin (enoxaparin) was administered to one group by subcutaneous injection, and the formulated complex of Example 2 was administered orally to other groups. […] The distal end of the vein along about 3 cm was weakly tied off, and the remaining veins were strongly tied off. 60 minutes after the drug treatment, 1 mL/kg of human pooled plasma was administered intravenously to the ends of the tails at 37° C., and the veins were tied off after 15 seconds to prevent blood flow. The veins were isolated 120 minutes after the drug treatment and stored in a Petri dish with 3.8% sodium citrate. Then, thrombus was isolated, and the amount of […] generated was measured.

For data set [2] the following is noted: rat, in vivo, iv, 2 mg/kg.
Procedure: The following experiment was performed to determine the pharmacokinetic (PK) behavior of heparin administered orally using the drug delivery conjugated moiety of the present invention.
Prior to drug administration, experimental animals (rats) were fasted for more than 4 hours to empty the stomach. Then, after the dorsal skin was fixed, forced oral administration was performed using a sonde and a syringe for oral administration, and the animals were fed again about 4 hours after the administration. […] Blood samples (450 μL) were collected in a tube containing sodium citrate (50 μL) and centrifuged at 4500×g for 20 minutes to isolate plasma, which was then stored in a deep freezer at −70° C. The concentration of the drug delivery conjugated moiety-heparin complex in the plasma was analyzed using the COATEST HEPARIN FXa assay (Chromogenix).

On to enoxaparin [LMWH], for which the “Anti-factor Xa activity” value in the data set with FXa (Bovine Factor Xa) amounted to 101 IU/mg. Moreover, the “thrombus generated, compared with complex of Example 2” value in data set [1] is “almost the same results”. Also, in data set [2], the “AUC (Area under the concentration-time curve from 0 to 8 h)” value is reported as 1.8 ± 0.1 IU · h/ml, the “CL (Clearance)” value was 17 ± 0 mL/day/kg, the “Emax (Maximum effective concentration)” value is 1.61 ± 0.02 IU/ml and the “Tmax (Time to reach maximum effective concentration)” value turned out to be 12 ± 0 min. The “t1/2 (Half-life of drug)” value in data set [2] came to 72 ± 6 min.
